This is an account of results in patent publication US11649476B2, “Flow cytometry data processing for antimicrobial agent sensibility prediction” (priority 2016, dated 2023).

Test [1] relates to Enterobacteriaceae strains. Description: FCM analysis of Ceftazidime-treated strains (DiBAC4(3) marker), fluorescence distribution. The test is classed as cell-based. The note with it: 128 strains, 1, 2, 4 and 8 mg/L Ceftazidime; inferred from low performance of quantile models. Here is the method:
In a next step 22, liquid samples with different concentrations {C1, . . . , Cm} of the antibiotic are prepared for each of the selected strains Si, where C1=0 (no antibiotic) and m>2 is the number of non-null concentrations of antibiotic. Said concentrations are stored in the computer unit 14. […] After 2 h growth at 35° C. with shaking at 180 rpm, the resulting exponential phase bacterial culture is normalized at 0.5 McF and used to inoculate wells of a microtiterplate supplemented with antibiotics at the different concentrations {C1, . . . , Cm}. After 1 h of incubation at 35° C., a membrane depolarization fluorescent marker, for example (Bis-(1,3-Dibutylbarbituric Acid)Trimethine Oxonol), also known as “DiBAC4(3)”, is added to the wells at a final concentration of 0.5 μg/ml. An additional 15 min incubation with the marker is at 35° C. is then carried out. […]
In the step 24, a FCM acquisition is performed for each sample by means of the flow-cytometer 12 and the corresponding FSC, SSC and fluorescence distributions stored in the computer unit 14. For each strain Si, and for each concentration C1, a FSC distribution “FSCi,j”, a SSC distribution “SSCi,j” and a fluorescence distribution “FIi,j” are thus stored in the computer unit 14, e.g. in the form of digital vectors. […]

Test [2] has as its system Enterobacteriaceae strains. Description: FCM fluorescence distribution profiles of Gentamicin-treated strains (DiBAC4(3) membrane depolarization marker). The test is classed as cell-based. Here is the method: In a next step 22, liquid samples with different concentrations {C1, . . . , Cm} of the antibiotic are prepared for each of the selected strains Si, where C1=0 (no antibiotic) and m>2 is the number of non-null concentrations of antibiotic. Said concentrations are stored in the computer unit 14. […] After 2 h growth at 35° C. with shaking at 180 rpm, the resulting exponential phase bacterial culture is normalized at 0.5 McF and used to inoculate wells of a microtiterplate supplemented with antibiotics at the different concentrations {C1, . . . , Cm}. After 1 h of incubation at 35° C., a membrane depolarization fluorescent marker, for example (Bis-(1,3-Dibutylbarbituric Acid)Trimethine Oxonol), also known as “DiBAC4(3)”, is added to the wells at a final concentration of 0.5 μg/ml. An additional 15 min incubation with the marker is at 35° C. is then carried out. The concentrations {C1, . . . , Cm} are chosen such that the range [BPS, BPR] is included or equal to the range [C2, Cm] of non-null concentrations.
In the step 24, a FCM acquisition is performed for each sample by means of the flow-cytometer 12 and the corresponding FSC, SSC and fluorescence distributions stored in the computer unit 14. For each strain Si, and for each concentration C1, a FSC distribution “FSCi,j”, a SSC distribution “SSCi,j” and a fluorescence distribution “FIi,j” are thus stored in the computer unit 14, e.g. in the form of digital vectors.
The experiment was performed as described in the following lines: • A panel of 107 Enterobacteriaceae strains (FIG. 6: Distribution of the panel of strains according to their MICs for Gentamicin) were treated with 0, 2, 4 and 8 mg/L of Gentamicin following the protocol described in FIG. 3 and analyzed by FCM.

Regarding `CC(C)(O/N=C(\C(=O)N[C@@H]1C(=O)N2C(C(=O)[O-])=C(C[n+]3ccccc3)CS[C@H]12)c1csc(N)n1)C(=O)O` [Ceftazidime], the “fluorescence distribution of treated strains” value in test [1] is recorded as “the majority of strains treated with Ceftazidime exhibit homogeneous distributions of fluorescence”.

In the case of Gentamicin, the “fluorescence distribution profile vs untreated samples” value is “more strains showed no shift of fluorescence (profile A)” in test [2] (intermediate phenotype strains, 2 mg/L Gentamicin); “equal number of strains exhibited either no shift (profile A) or heterogeneous fluorescence distribution (profile B)” in test [2] (intermediate phenotype strains, 4 and 8 mg/L Gentamicin); “equal number of strains exhibited either no shift (profile A) or heterogeneous fluorescence distributions (profile B)” in test [2] (susceptible phenotype strains, 2 mg/L Gentamicin, panel of 107 strains, approximately evaluated); “the majority of strains exhibited an heterogeneous fluorescence distribution (profile B)” in test [2] (susceptible phenotype strains, 4 and 8 mg/L Gentamicin, panel of 107 strains, approximately evaluated). Besides, the “resistant strains that did not show any shift in fluorescence (profile A)” value in test [2] (resistant phenotype strains, all concentrations tested (2, 4, 8 mg/L)) is 36 out of 37.
